Measurements published in the supplement of paper PMC10307832.

Legend:
Test in all cases: relative viability (nuclei count vs DMSO), 5 days (fraction); higher = more cells survive
HCC-15 = test system: HCC-15
How it was run: (§1)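 Lung cancer cell lines were pin-tool dosed in 1536-well plates on the day after seeding, with either a lone drug or a fixed anchor-drug dose plus five library-drug doses (not always all listed) in √10 steps. Nuclei were counted on 4× images after 5 days. Relative viability is the ratio of treated-well to vehicle-well nuclei counts, with each value a median of duplicate plates.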

HCC-366 = test system: HCC-366
How it was run: as §1

NCI-H358 = test system: NCI-H358
How it was run: as §1

NCI-H1755 = test system: NCI-H1755
How it was run: as §1

NCI-H2342 = test system: NCI-H2342
How it was run: as §1

LC-2-ad = test system: LC-2-ad
How it was run: as §1

NCI-H1437 = test system: NCI-H1437
How it was run: as §1

EMC-BAC-2 = test system: EMC-BAC-2
How it was run: as §1

NCI-H2347 = test system: NCI-H2347
How it was run: as §1

NCI-H1793 = test system: NCI-H1793
How it was run: as §1

PC-14 = test system: PC-14
How it was run: as §1

NCI-H1792 = test system: NCI-H1792
How it was run: as §1

NCI-H23 = test system: NCI-H23
How it was run: as §1

NCI-H650 = test system: NCI-H650
How it was run: as §1

NCI-H1915 = test system: NCI-H1915
How it was run: as §1

NCI-H1395 = test system: NCI-H1395
How it was run: as §1

201T = test system: 201T
How it was run: as §1

CN1CCN(CCOc2cc(OC3CCOCC3)c3c(Nc4c(Cl)ccc5c4OCO5)ncnc3c2)CC1 [Saracatinib] + NC(=O)Nc1cc(-c2cccc(F)c2)sc1C(=O)N[C@H]1CCCNC1 [AZD7762] (partner 0.2 µM)
relative viability (HCC-15; first compound 0.02 µM): 1.29 | relative viability (HCC-15; first compound 0.2 µM): 0.874 | relative viability (HCC-15; first compound 0.6325 µM): 1.14 | relative viability (HCC-15; first compound 2 µM): 1.21 | relative viability (HCC-366; first compound 0.02 µM): 0.215 | relative viability (HCC-366; first compound 0.2 µM): 0.0547 | relative viability (HCC-366; first compound 0.6325 µM): 0.216 | relative viability (HCC-366; first compound 2 µM): 0.139 | relative viability (NCI-H358; first compound 0.02 µM): 0.668 | relative viability (NCI-H358; first compound 0.2 µM): 0.418 | relative viability (NCI-H358; first compound 0.6325 µM): 0.364 | relative viability (NCI-H358; first compound 2 µM): 0.318 | relative viability (NCI-H1755; first compound 0.02 µM): 0.438 | relative viability (NCI-H1755; first compound 0.2 µM): 0.41 | relative viability (NCI-H1755; first compound 0.6325 µM): 0.465 | relative viability (NCI-H1755; first compound 2 µM): 0.372 | relative viability (NCI-H2342; first compound 0.02 µM): 0.721 | relative viability (NCI-H2342; first compound 0.2 µM): 0.471 | relative viability (NCI-H2342; first compound 0.6325 µM): 0.562 | relative viability (NCI-H2342; first compound 2 µM): 0.515 | relative viability (LC-2-ad; first compound 0.02 µM): 0.841 | relative viability (LC-2-ad; first compound 0.2 µM): 0.778 | relative viability (LC-2-ad; first compound 0.6325 µM): 0.835 | relative viability (LC-2-ad; first compound 2 µM): 0.726 | relative viability (NCI-H1437; first compound 0.02 µM): 1.12 | relative viability (NCI-H1437; first compound 0.2 µM): 1.17 | relative viability (NCI-H1437; first compound 0.6325 µM): 1.17 | relative viability (NCI-H1437; first compound 2 µM): 1.07 | relative viability (EMC-BAC-2; first compound 0.02 µM): 1.12 | relative viability (EMC-BAC-2; first compound 0.2 µM): 1.09 | relative viability (EMC-BAC-2; first compound 0.6325 µM): 1.09 | relative viability (EMC-BAC-2; first compound 2 µM): 0.946 | relative viability (NCI-H2347; first compound 0.02 µM): 0.828 | relative viability (NCI-H2347; first compound 0.2 µM): 0.663 | relative viability (NCI-H2347; first compound 0.6325 µM): 0.623 | relative viability (NCI-H2347; first compound 2 µM): 0.657 | relative viability (NCI-H1793; first compound 0.02 µM): 0.304 | relative viability (NCI-H1793; first compound 0.2 µM): 0.233 | relative viability (NCI-H1793; first compound 0.6325 µM): 0.312 | relative viability (NCI-H1793; first compound 2 µM): 0.26 | relative viability (PC-14; first compound 0.02 µM): 0.381 | relative viability (PC-14; first compound 0.2 µM): 0.286 | relative viability (PC-14; first compound 0.6325 µM): 0.246 | relative viability (PC-14; first compound 2 µM): 0.203 | relative viability (NCI-H1792; first compound 0.02 µM): 0.618 | relative viability (NCI-H1792; first compound 0.2 µM): 0.542 | relative viability (NCI-H1792; first compound 0.6325 µM): 0.831 | relative viability (NCI-H1792; first compound 2 µM): 0.648 | relative viability (NCI-H23; first compound 0.02 µM): 0.243 | relative viability (NCI-H23; first compound 0.6325 µM): 0.287 | relative viability (NCI-H23; first compound 2 µM): 0.27 | relative viability (NCI-H650; first compound 0.02 µM): 0.984 | relative viability (NCI-H650; first compound 0.2 µM): 1.04 | relative viability (NCI-H650; first compound 0.6325 µM): 0.98 | relative viability (NCI-H650; first compound 2 µM): 0.997 | relative viability (NCI-H1915; first compound 0.02 µM): 0.632 | relative viability (NCI-H1915; first compound 0.2 µM): 0.639 | relative viability (NCI-H1915; first compound 0.6325 µM): 0.684 | relative viability (NCI-H1915; first compound 2 µM): 0.696 | relative viability (NCI-H1395; first compound 0.02 µM): 0.404 | relative viability (NCI-H1395; first compound 0.2 µM): 0.397 | relative viability (NCI-H1395; first compound 0.6325 µM): 0.388 | relative viability (NCI-H1395; first compound 2 µM): 0.382 | relative viability (201T; first compound 0.02 µM): 0.554 | relative viability (201T; first compound 0.2 µM): 0.446 | relative viability (201T; first compound 0.6325 µM): 0.623 | relative viability (201T; first compound 2 µM): 0.625
